Laboratory results: ChEMBL document CHEMBL1201862, “PubChem BioAssay data set” (2004)
“And” between values parts separate entries of the source, which are not always exact repeats. Equal entries are not always repeated. The source made the active and inactive calls.

Legend:
cells [1] = assay type: functional, cell-based
[2] = Luminescence Cell-Based Dose Response HTS to Identify Activators of Luciferase Translation or Activity in H4 […] Cells. [Related pubchem assays: 1829 (Project Summary), 1814 (Primary HTS)]; assay type: functional
Cytochrome P450 2C19 = Cytochrome P450 2C19 (Homo sapiens, UniProt P33261); assay: Cytochrome panel assay with activity outcomes. Panel member name: p450-cyp2c19 Compounds with AC50 equal or less than 10 uM are considered active; assay type: functional; conditions: read-out: AC50
cells [3] = assay type: functional, cell-based; remark: listed apart in the source
[4] = Luminescence Cell-Based Dose Confirmation HTS to Identify Activators of 5'UTR Stem-Loop Driven Alpha-Synuclein mRNA Translation in H4 Neuroglioblastoma Cells. [Related pubchem assays: 1829 (Project Summary), 1814 (Primary HTS)]; assay type: functional
[5] = DNA binding of candidate compounds, dose response, artefact control for RAD54 inhibitor project, biochemical, fluorescence polarization, cherry-pick (AID 651673); assay type: functional
Cytochrome P450 2D6 = Cytochrome P450 2D6 (Homo sapiens, UniProt P10635);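 note: CYP2D6 member of a cytochrome P450 panel assay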
[6] = biological target: T1, DNA repair and recombination protein RAD54-like (Homo sapiens, UniProt Q92698); assay: inhibitors of human RAD54 branch migration, confirmation, biochemical, fluorescence, cherry-picked samples, dose series (AID 651657); assay type: functional
T1 sequence (Q92698 whole entry): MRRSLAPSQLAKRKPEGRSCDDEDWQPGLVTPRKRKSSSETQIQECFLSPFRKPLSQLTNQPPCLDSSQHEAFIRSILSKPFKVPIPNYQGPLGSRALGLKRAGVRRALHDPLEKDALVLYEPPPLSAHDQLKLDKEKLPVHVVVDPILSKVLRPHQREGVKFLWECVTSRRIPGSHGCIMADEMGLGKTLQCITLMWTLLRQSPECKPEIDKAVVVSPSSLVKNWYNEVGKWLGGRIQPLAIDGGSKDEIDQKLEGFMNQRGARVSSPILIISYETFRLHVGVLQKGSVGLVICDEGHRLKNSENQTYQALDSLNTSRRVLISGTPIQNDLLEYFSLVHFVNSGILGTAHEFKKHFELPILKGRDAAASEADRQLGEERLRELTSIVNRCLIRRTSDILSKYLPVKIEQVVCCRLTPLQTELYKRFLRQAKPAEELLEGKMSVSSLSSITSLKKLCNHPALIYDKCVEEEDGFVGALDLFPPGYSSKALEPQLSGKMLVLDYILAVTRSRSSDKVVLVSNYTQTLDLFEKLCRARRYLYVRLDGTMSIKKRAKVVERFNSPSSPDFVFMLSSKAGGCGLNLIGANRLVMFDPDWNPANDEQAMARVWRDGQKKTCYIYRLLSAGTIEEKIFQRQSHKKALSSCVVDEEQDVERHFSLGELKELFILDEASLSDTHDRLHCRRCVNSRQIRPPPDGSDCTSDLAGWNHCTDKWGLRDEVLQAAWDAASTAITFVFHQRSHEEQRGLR

H4 = assay: Luminescence Cell-Based Dose Response HTS to Identify Activators of 5'UTR Stem-Loop Driven Prion Protein mRNA Translation in H4 Neuroglioblastoma Cells. [Related pubchem assays: 1829 (Project Summary), 1814 (Primary HTS)]; assay type: functional; conditions: Homo sapiens
Steroidogenic factor 1 = Steroidogenic factor 1 (Homo sapiens, UniProt Q13285); assay: Counterscreen for inverse agonists of the liver receptor homolog-1 (LRH-1; NR5A2): Luminescence-based cell-based high throughput dose response assay to identify inverse agonists of the Steroidogenic Factor 1 Nuclear Receptor (SF1; NR5A1).; assay type: functional
[7] = StAR promoter reporter inhibition counter-screen, dose response, counter-screen for LRH-1 inverse agonist project, cell-based, luminescence, luciferase reporter (AID 651969); assay type: functional
[8] = biological target: Nuclear receptor subfamily 5 group A member 2 (Homo sapiens, UniProt O00482); assay type: functional, cell-based;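 note: HEK293T cells transfected with LRH-1 and a StAR promoter luciferase reporter; potency for inhibitors that lower LRH-1 driven reporter light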
Cryptococcus neoformans [9] = assay: Cryptococcus growth inhibition by alamar blue – cell lysis, cherry-picks, replicate tests, mechanism study for C. neoformans antifungal project, dose response (AID 686999); assay type: functional, organism-based
Cryptococcus neoformans [10] = assay: PubChem AID 686997; assay type: functional, organism-based
Beta-lactamase [11] = biological target: T2, Beta-lactamase (Pseudomonas aeruginosa, UniProt Q79MP6); assay: […] counterscreen for selective VIM-2 inhibitors: dose response biochemical high throughput screening assay to identify inhibitors of IMP-1 metallo-beta-lactamase.
Beta-lactamase [12] = biological target: Beta-lactamase (Salmonella choleraesuis (strain SC-B67), UniProt Q5J463); assay: Epi-absorbance-based counterscreen for selective VIM-2 inhibitors: dose response biochemical high throughput screening assay to identify inhibitors of TEM-1 serine-beta-lactamase.
Beta-lactamase [13] = biological target: T2, Beta-lactamase; assay: IMP-1 metallo-beta-lactamase inhibitors, dose response, selectivity assay for VIM-2 inhibitor project, biochemical, epi-absorbance (AID 1920)
[14] = Counterscreen for […] of the human trace amine associated receptor 1 (TAAR1): Fluorescence-based cell-based high throughput dose response assay to identify nonselective Ga16 agonists.; assay type: functional
[15] = Counterscreen for antagonists of the human trace amine associated receptor 1 (hTAAR1): Fluorescence-based cell-based high throughput dose response assay to identify nonselective Ga16 antagonists.; assay type: functional
[16] = biological target: DNA repair protein RAD52 homolog (Homo sapiens, UniProt P43351); assay type: functional, biochemical
HeLa = assay: HeLa cell cytotoxicity, dose response, cytotoxicity control, ATP luminescence, cherry-pick samples (AID 687004); assay type: functional, cell-based; conditions: Homo sapiens
[17] = biological target: T3, Ubiquitin-conjugating enzyme E2 N (Homo sapiens, UniProt P61088); assay type: functional;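 note: Dose-response confirmation in a TR-FRET assay detecting UBC13-driven polyubiquitin chain formation, inhibition measured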
T3 sequence (P61088 whole entry): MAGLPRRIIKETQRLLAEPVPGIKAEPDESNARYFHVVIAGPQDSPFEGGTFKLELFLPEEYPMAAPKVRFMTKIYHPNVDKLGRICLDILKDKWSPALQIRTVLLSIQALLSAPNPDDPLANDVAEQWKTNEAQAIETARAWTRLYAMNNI

[18] = biological target: Induced myeloid leukemia cell differentiation protein Mcl-1 (Homo sapiens, UniProt Q07820); assay type: functional
[19] = biological target: Matrix metalloproteinase-14 (Homo sapiens, UniProt P50281); assay: Dose Response confirmation of uHTS hits for a small molecule inhibitors of MT1-MMP activation in a fluorescence assay set 2.; assay type: functional
Vero = Vero cell cytotoxicity, cytotoxicity control for flavivirus capping enzyme inhibitors (AID 588742); assay type: functional; conditions: Chlorocebus sabaeus
HEK293 = assay: inhibitors of LMP1-driven NF-kB reporter, dose response, cell-based, HEK293, luciferase, cherry-pick (AID 588343); assay type: functional; conditions: Homo sapiens
[20] = non-specific cell cytotoxicity, dose response, cytotoxicity control for PAX8 inhibitor project, plate reader, dry powder samples (AID 743021); assay type: functional, cell-based
[21] = human group III sPLA2 inhibitors, dose response, biochemical, QFRET, IC50 (AID 743457);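 note: green fluorescence rise as the enzyme cleaves BODIPY PC-A2 in liposomes; potency for inhibition of the enzyme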
Beta Lactamase = Beta Lactamase (Pseudomonas aeruginosa, UniProt Q932Y6); assay: beta-lactamase reporter inhibitor potency, dose response, artefact control for TLR9-MyD88 binding inhibitor project, BLA reporter cells, FRET fluorescence (AID 588341); assay type: cell-based;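 note: cell based assay in CHO-K1 cells stably expressing beta-lactamase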
Genome polyprotein = Genome polyprotein (dengue virus type 2, UniProt P29990); assay: Dengue-2 NS5 methyltransferase inhibitors, primary screen, biochemical, confirmation dose response (AID 588689); assay type: functional
[22] = biological target: T4, Polyadenylate-binding protein 1 (Homo sapiens, UniProt P11940); assay: PABP1 MLLE–PAM2 binding inhibitor potency, dose response, biochemical, fluorescence polarization, FITC-PAM2 peptide (AID 602259); assay type: functional; conditions: read-out: IC50_Mean
Paired box protein Pax-8 = Paired box protein Pax-8 (Homo sapiens, UniProt Q06710); assay: inhibitors of PAX8-driven TPO luciferase reporter, dose response, RMG-I cells, cherry-pick (AID 687027); assay type: functional, cell-based;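 note: luciferase reporter driven by Pax8 target thyroperoxidase promoter measured by SteadyGlo luminescence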
[23] = biological target: T4, Polyadenylate-binding protein 1; assay: PABP1 MLLE–PAM2 interaction inhibitors, dose response, miRNA deadenylation inhibitor project, biochemical, fluorescence polarization, Cy5-PAM2 peptide, secondary (AID 602260); assay type: functional; conditions: read-out: IC50_Mean
CHO = assay: cytotoxicity in TLR9-MyD88 CHO cells, dose response, cytotoxicity control for TLR9-MyD88 binding inhibitor project, cell-based, luminescence (AID 588339); assay type: functional, hamster; conditions: Cricetulus griseus;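 note: CHO cells stably coexpressing TLR9 and MyD88 fusions from primary screen; compound exposure lasted 48 hours before viability readout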
[24] = biological target: Fructose-bisphosphate aldolase (Mycobacterium tuberculosis, UniProt P9WQA3); assay: Fluorescence-based biochemical high throughput dose response assay for inhibitors of the fructose-bisphosphate aldolase (FBA) of M. tuberculosis.; assay type: functional
[25] = biological target: T5, Sentrin-specific protease 1 (Homo sapiens, UniProt Q9P0U3); assay: potency of human SENP1 inhibitors, dose response, biochemical, kinetic FRET (AID 651697); assay type: functional; conditions: read-out: IC50_Mean
[26] = biological target: T5, Sentrin-specific protease 1; assay: Dose response confirmation of small molecule inhibitors of the catalytic domain of the SUMO protease, SENP1 in a FRET assay.; assay type: functional; conditions: read-out: IC50_Mean
[27] = lymphoblastoid cell cytotoxicity, dose response, cytotoxicity control, plate reader, dry powder, set 2 (AID 624367); assay type: functional
[28] = HEK293 cell viability, dose response, counter-screen for EBV LMP1 inhibitor project, dry powder, set 2 (AID 624374); assay type: functional
[29] = LMP1-driven NF-kB reporter inhibition, dose response, cell-based, luciferase reporter, luminescence, dry powder, set 2 (AID 624376); assay type: functional
Albumin = Albumin (Bos taurus, UniProt P02769); assay: Counterscreen for inhibitors of T-cell receptor (TCR)-CD3 interaction: Fluorescence-based biochemical high throughput dose response assay to identify inhibitors of T-cell receptor (TCR)-CD3 interaction using a TAMRA-labeled BSA probe.; assay type: functional
Sequence of Albumin (P02769 whole entry): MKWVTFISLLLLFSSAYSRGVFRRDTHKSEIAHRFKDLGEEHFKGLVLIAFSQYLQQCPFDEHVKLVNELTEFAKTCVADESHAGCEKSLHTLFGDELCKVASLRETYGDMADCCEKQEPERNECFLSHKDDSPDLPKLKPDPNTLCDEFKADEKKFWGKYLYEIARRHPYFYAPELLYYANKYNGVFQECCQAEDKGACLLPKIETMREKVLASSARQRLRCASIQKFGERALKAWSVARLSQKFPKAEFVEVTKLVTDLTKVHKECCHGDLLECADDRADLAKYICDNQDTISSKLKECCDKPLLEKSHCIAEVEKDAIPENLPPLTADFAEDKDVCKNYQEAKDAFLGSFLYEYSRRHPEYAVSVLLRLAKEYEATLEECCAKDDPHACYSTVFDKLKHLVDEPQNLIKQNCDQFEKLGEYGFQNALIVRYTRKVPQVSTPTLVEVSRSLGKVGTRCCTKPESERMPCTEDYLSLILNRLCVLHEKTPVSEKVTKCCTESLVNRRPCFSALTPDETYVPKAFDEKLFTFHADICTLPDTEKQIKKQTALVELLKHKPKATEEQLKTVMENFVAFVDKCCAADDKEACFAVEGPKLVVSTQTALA

T2 sequence (Q79MP6 whole entry): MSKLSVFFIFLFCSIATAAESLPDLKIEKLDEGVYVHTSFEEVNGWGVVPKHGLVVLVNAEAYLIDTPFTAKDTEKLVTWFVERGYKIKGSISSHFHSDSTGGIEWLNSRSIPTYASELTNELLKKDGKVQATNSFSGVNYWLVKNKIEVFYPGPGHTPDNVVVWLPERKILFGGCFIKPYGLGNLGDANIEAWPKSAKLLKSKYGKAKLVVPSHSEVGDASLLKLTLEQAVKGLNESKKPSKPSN
T5 sequence (Q9P0U3 whole entry, the tested form may be a part): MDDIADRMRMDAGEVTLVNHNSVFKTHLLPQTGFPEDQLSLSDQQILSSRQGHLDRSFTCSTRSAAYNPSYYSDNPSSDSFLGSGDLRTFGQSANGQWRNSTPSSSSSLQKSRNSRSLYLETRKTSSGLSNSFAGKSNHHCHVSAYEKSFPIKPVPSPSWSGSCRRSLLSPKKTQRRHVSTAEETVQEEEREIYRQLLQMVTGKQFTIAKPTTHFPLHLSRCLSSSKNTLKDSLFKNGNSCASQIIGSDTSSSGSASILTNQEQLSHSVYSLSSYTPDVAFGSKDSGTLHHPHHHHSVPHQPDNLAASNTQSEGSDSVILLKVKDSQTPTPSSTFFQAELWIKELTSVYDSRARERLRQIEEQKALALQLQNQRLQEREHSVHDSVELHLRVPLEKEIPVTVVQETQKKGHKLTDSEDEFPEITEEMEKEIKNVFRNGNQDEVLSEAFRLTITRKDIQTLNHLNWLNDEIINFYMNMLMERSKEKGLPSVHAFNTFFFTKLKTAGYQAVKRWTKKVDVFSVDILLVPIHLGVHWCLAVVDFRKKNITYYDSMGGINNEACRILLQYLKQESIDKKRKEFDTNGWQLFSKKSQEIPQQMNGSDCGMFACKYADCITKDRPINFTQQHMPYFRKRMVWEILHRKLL
T4 sequence (P11940 whole entry): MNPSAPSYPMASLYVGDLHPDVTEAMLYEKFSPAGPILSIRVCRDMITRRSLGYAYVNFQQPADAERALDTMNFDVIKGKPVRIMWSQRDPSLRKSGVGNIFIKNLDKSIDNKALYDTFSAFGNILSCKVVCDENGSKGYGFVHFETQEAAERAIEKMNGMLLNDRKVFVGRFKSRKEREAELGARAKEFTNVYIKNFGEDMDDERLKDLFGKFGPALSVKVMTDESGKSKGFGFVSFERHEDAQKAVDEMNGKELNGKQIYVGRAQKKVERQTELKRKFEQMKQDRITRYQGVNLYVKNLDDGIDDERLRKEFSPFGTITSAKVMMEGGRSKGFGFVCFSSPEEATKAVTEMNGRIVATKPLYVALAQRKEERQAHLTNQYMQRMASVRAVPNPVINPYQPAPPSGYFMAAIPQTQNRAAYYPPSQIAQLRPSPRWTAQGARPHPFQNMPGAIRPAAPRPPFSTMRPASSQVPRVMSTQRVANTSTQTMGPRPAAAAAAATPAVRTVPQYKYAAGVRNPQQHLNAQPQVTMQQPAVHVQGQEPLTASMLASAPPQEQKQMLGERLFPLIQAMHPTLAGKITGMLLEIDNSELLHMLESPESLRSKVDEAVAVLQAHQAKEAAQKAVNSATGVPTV
Sequence of Fructose-bisphosphate aldolase (P9WQA3 whole entry): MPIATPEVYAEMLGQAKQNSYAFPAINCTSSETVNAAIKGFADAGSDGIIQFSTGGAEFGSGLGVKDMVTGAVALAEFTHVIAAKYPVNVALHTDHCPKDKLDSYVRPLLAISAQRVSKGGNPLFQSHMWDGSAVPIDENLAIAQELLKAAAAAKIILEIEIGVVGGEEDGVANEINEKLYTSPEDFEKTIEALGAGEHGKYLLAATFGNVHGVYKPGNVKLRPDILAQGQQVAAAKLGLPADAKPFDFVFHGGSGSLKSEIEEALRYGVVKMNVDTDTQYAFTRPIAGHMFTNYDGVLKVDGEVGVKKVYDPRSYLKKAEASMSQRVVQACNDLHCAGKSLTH
Sequence of Beta Lactamase (Q932Y6 whole entry): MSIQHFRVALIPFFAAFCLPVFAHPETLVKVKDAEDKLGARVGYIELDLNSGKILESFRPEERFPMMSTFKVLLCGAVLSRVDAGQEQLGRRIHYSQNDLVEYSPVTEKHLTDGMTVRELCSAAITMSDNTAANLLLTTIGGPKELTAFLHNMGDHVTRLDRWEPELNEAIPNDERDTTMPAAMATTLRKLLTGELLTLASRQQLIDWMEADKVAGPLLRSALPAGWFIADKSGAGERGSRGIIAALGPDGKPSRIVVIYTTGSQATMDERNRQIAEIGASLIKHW
Sequence of Cytochrome P450 2C19 (P33261 whole entry): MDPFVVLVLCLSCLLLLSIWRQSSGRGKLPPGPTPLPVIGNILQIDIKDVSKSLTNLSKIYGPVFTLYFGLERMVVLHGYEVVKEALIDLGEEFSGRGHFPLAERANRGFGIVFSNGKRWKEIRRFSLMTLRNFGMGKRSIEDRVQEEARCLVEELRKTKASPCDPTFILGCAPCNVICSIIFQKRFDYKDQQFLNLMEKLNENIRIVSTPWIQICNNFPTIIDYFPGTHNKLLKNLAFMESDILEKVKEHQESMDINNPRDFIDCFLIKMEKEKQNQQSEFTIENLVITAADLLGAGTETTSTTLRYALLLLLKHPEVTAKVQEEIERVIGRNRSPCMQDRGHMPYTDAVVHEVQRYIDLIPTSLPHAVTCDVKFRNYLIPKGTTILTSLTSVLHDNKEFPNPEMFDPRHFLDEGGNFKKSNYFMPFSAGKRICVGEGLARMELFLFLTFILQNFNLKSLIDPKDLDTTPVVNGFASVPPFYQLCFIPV
Sequence of Beta-lactamase (Salmonella choleraesuis (strain SC-B67), UniProt Q5J463) (Q5J463 whole entry): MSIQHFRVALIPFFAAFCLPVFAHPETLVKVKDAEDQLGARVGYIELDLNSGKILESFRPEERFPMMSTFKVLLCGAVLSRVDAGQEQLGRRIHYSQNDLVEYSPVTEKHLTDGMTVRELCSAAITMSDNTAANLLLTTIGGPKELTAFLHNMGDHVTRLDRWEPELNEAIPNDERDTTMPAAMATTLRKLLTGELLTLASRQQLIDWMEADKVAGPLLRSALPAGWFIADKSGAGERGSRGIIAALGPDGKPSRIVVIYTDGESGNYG
Sequence of Genome polyprotein (P29990 2492-3391 limits assumed): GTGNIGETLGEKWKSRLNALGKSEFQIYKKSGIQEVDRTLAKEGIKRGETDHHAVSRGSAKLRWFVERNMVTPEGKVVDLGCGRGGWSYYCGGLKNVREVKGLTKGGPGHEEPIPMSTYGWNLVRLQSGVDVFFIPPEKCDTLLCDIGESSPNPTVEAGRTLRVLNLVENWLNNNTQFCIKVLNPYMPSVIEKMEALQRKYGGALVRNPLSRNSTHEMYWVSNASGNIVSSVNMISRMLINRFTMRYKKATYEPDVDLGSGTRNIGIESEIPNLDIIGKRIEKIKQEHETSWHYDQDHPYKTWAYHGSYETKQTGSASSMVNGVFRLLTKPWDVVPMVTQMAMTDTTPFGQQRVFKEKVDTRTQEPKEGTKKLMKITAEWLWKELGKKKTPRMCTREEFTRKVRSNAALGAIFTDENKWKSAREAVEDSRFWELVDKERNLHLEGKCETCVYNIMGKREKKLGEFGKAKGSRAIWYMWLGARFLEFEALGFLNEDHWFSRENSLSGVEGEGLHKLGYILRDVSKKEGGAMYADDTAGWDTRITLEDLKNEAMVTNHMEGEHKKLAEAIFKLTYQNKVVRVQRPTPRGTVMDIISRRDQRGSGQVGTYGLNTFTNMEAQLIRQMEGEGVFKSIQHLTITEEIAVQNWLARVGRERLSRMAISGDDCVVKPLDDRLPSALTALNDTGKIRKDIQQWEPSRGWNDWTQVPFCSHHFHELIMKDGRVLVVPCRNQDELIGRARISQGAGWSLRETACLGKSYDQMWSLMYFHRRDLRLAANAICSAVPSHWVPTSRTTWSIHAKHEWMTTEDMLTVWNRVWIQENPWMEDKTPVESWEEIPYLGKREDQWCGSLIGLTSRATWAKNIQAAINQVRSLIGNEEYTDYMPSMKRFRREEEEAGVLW
Sequence of Nuclear receptor subfamily 5 group A member 2 (O00482 whole entry): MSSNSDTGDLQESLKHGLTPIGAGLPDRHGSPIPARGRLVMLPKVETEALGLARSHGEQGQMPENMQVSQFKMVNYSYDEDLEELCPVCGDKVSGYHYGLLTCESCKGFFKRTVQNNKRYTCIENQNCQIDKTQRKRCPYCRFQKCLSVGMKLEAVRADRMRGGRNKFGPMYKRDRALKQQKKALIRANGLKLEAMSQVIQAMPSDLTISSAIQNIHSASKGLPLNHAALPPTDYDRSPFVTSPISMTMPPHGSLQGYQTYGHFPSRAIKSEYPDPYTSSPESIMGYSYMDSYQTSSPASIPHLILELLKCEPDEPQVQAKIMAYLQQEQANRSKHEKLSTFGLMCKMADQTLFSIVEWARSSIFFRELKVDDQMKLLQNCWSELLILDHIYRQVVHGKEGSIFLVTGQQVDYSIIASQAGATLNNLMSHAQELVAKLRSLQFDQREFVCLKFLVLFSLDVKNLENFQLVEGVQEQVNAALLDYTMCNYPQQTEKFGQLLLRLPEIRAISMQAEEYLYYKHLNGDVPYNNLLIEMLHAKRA

## Cc1cc(C)c2c(N)c3ccccc3nc2n1
Cells [1]
  EC50: > 350 µM (not active)
[2]
  EC50: 8.34 µM (active)
Cytochrome P450 2C19
  AC50: 5.62 µM (inconclusive)
Cells [3]
  EC50: 32.3 µM (active)
[4]
  EC50: 3.6 µM (active)
[5]
  AC50: 41.4 µM (active)
Cytochrome P450 2D6
  AC50: 20 µM (inconclusive)
[6]
  AC50: 5.7 µM (active)
H4
  EC50: > 120 µM (not active)

## CCCc1cc(=O)oc2c(C)c(OCC(=O)NCCN3CCOCC3)ccc12
Steroidogenic factor 1
  IC50: 12.4 µM (inactive)
[7]
  IC50: 35.9 µM (inactive)
[8]
  IC50: 35.9 µM (inactive)

## COC(=O)C1=C(C)N(Cc2ccccc2)C(=S)N[C@H]1c1ccc(Br)cc1
Cryptococcus neoformans [9]
  AC50: 42.2 µM (active)
Cryptococcus neoformans [10]
  AC50: 50.4 µM (active) and 14.1 µM (active)

## O=C(CSc1nnc(NC(=O)C2CCCCC2)s1)NCc1ccco1
Beta-lactamase [11]
  IC50: > 59.6 µM (inactive)
Beta-lactamase [12]
  IC50: > 59.6 µM (inactive)
Beta-lactamase [13]
  IC50: > 59.6 µM (inactive)

## O=C(CCC(=O)N1CCOCC1)NCCc1ccc(F)cc1
[14]
  EC50: > 29.9 µM (inactive)
[15]
  IC50: > 29.9 µM (inactive)

## CN1CCN(CCCNC(=O)c2ccc(/C=C3\Oc4ccccc4N(Cc4ccccc4F)C3=O)cc2)CC1
[16]
  AC50: 8.16 µM (active)
HeLa
  AC50: 17 µM (active)
[17]
  IC50: > 20 µM (inactive)

## Cc1ccc(C(=O)NNc2c3ccccc3nc3ccccc23)cc1
[18]
  IC50: 5.38 µM (active)
[19]
  IC50: > 80 µM (inactive)

## COc1ccccc1N(C(C)=O)C1=C(Cl)C(=O)c2ccccc2C1=O
Vero
  CC50: 22.6 µM (active)
HEK293
  AC50: 5.98 µM (active)
[20]
  AC50: 27.8 µM (active)
[21]
  IC50: > 122 µM (inactive)
Beta Lactamase
  IC50: 5.37 µM (active)
Genome polyprotein
  IC50: 9.2 µM (active)
[22]
  IC50: > 66 µM (inactive)
Paired box protein Pax-8
  AC50: 3.59 µM (active)
[23]
  IC50: > 66 µM (inactive)
CHO
  IC50: 1.03 µM (active)

## CNc1ccc2ncc(-c3ccc(OC)c(OC)c3)n2n1
[24]
  IC50: 1.69 µM (active)

## Oc1nc2cc3ccccc3cc2nc1-c1nnnn1C1CCCC1
[25]
  IC50: 2.21 µM (active)
[26]
  IC50: 1.05 µM (active)

## O=C(C[C@H]1C[C@H]2c3cc(NS(=O)(=O)c4ccc(F)cc4)ccc3O[C@H]2[C@H](CO)O1)NCc1ccc(Oc2ccccc2)cc1
[27]
  AbsAC35: 45.43 µM
[28]
  AbsAC35: 70.4 µM

## CC(C)(C)[S@@+]([O-])N1Cc2cc(C(=O)NCc3ccccn3)nc(-c3cccc(-c4ccccc4F)c3)c2[C@H]1CCO
[29]
  AbsAC35: 49.61 µM

## Cn1c(SCC(=O)NNC(=O)c2ccccc2O)nnc1-c1ccccc1
Albumin
  IC50: > 94.2 µM (inactive)
